Test results: patent US6855710B2, “Substituted indolines with an inhibitory effect on various kinases and complexes of CDKs” (Boehringer Ingelheim Pharma KG, priority 1998, dated 2005)

Row | melting point | SMILES
1 | 246 to 248 °C | CN(C(=O)CN1CCNCC1)c1ccc(N/C(=C2\C(=O)Nc3ccc([N+](=O)[O-])cc32)c2ccccc2)cc1.Cl.Cl
2 | > 370 °C | Cl.NCc1ccc(N/C(=C2\C(=O)Nc3ccc([N+](=O)[O-])cc32)c2ccccc2)cc1
3 | 225 to 228 °C | Cl.NCC(=O)NCc1ccc(N/C(=C2\C(=O)Nc3ccc([N+](=O)[O-])cc32)c2ccccc2)cc1
4 | 195 to 198 °C | CNCC(=O)NCc1ccc(N/C(=C2\C(=O)Nc3ccc([N+](=O)[O-])cc32)c2ccccc2)cc1.Cl
5 | 351 °C | CNCc1ccc(N/C(=C2\C(=O)Nc3ccc([N+](=O)[O-])cc32)c2ccccc2)cc1.Cl
6 | 230 to 235 °C | C[C@H](N)c1ccc(N/C(=C2\C(=O)Nc3ccc([N+](=O)[O-])cc32)c2ccccc2)cc1.Cl
7 | 230 to 235 °C | C[C@@H](N)c1ccc(N/C(=C2\C(=O)Nc3ccc([N+](=O)[O-])cc32)c2ccccc2)cc1.Cl
8 | 335 to 340 °C (dec.) | Cl.NCCc1ccc(N/C(=C2\C(=O)Nc3ccc([N+](=O)[O-])cc32)c2ccccc2)cc1
9 | 309 °C | Cl.NCC(=O)NCc1cccc(N/C(=C2\C(=O)Nc3ccc([N+](=O)[O-])cc32)c2ccccc2)c1
10 | 233 °C | CN(C)Cc1ccc(N/C(=C2\C(=O)Nc3ccc([N+](=O)[O-])cc32)c2ccc([N+](=O)[O-])cc2)cc1
11 | 215 °C (dec.) | COC(=O)C(N)Cc1ccc(N/C(=C2\C(=O)Nc3ccc([N+](=O)[O-])cc32)c2ccccc2)cc1.Cl (stereo not shown)
12 | 225 °C (dec.) | Cl.NC(Cc1ccc(N/C(=C2\C(=O)Nc3ccc([N+](=O)[O-])cc32)c2ccccc2)cc1)C(=O)O (stereo not shown)
13 | 298 to 300 °C | Cl.O=C1Nc2ccc([N+](=O)[O-])cc2/C1=C(/Nc1ccc(CNCc2ccccc2)cc1)c1ccccc1
14 | > 370 °C | Cl.Cl.O=C1Nc2ccc([N+](=O)[O-])cc2/C1=C(/Nc1ccc(CN2CCNCC2)cc1)c1ccccc1
15 | 289 to 290 °C | Cl.NCC(=O)Nc1ccc(N/C(=C2\C(=O)Nc3ccccc32)c2ccccc2)cc1
16 | 97 to 99 °C | CN(C(=O)CCN)c1ccc(N/C(=C2\C(=O)Nc3ccccc32)c2ccccc2)cc1.Cl
17 | 202 to 204 °C | CCN(CC)C(=O)c1ccc(N/C(=C2\C(=O)Nc3ccccc32)c2ccccc2)cc1
18 | 267 to 269 °C | CCN(CC)CC(=O)Nc1ccc(N/C(=C2\C(=O)Nc3ccccc32)c2ccccc2)cc1.Cl
19 | 290 to 292 °C | CN(C)CC(=O)N(C)c1ccc(N/C(=C2\C(=O)Nc3ccccc32)c2ccccc2)cc1.Cl
20 | 255 to 258 °C (dec.) | CN(C(=O)CN1CCNCC1)c1ccc(N/C(=C2\C(=O)Nc3ccccc32)c2ccccc2)cc1.Cl.Cl

Row | melting point | SMILES
21 | 190 to 195 °C | Cl.NCC(=O)NCc1ccc(N/C(=C2\C(=O)Nc3ccccc32)c2ccccc2)cc1
22 | 287 to 288 °C | CCN(CC)CC(=O)Nc1ccc(N/C(=C2\C(=O)Nc3ccc([N+](=O)[O-])cc32)c2ccccc2)cc1.Cl
23 | 325 °C | O=C1Nc2ccccc2/C1=C(/Nc1ccccc1)c1ccccc1 [Example 1, (Z)-3-(1-Anilino-1-phenyl-methylidene)-2-indolinone]
24 | 267 to 270 °C | COc1ccc(N/C(=C2\C(=O)Nc3ccccc32)c2ccccc2)cc1 [Example 2, (Z)-3-[1-(4-methoxy-phenylamino)-1-phenyl-methylidene]-2-indolinone]
25 | 218 to 221 °C | COc1cccc(N/C(=C2\C(=O)Nc3ccccc32)c2ccccc2)c1 [Example 3, (Z)-3-[1-(3-methoxy-phenylamino)-1-phenyl-methylidene]-2-indolinone]
26 | 237 °C | COc1ccccc1N/C(=C1\C(=O)Nc2ccccc21)c1ccccc1 [Example 4, (Z)-3-[1-(2-methoxy-phenylamino)-1-phenyl-methylidene]-2-indolinone]
27 | 182 to 184 °C | COCc1cccc(N/C(=C2\C(=O)Nc3ccccc32)c2ccccc2)c1 [Example 5, (Z)-3-[1-(3-methoxymethyl-phenylamino)-1-phenyl-methylidene]-2-indolinone]
28 | 218 to 220 °C | Cc1cccc(N/C(=C2\C(=O)Nc3ccccc32)c2ccccc2)c1 [Example 6, (Z)-3-[1-(3-methyl-phenylamino)-1-phenyl-methylidene]-2-indolinone]
29 | 241 to 244 °C | COC(=O)c1ccccc1N/C(=C1\C(=O)Nc2ccccc21)c1ccccc1 [Example 7, (Z)-3-[1-(2-methoxycarbonyl-phenylamino)-1-phenyl-methylidene]-2-indolinone]
30 | 227 to 230 °C | O=C1Nc2ccccc2/C1=C(/Nc1ccccc1C(=O)O)c1ccccc1 [Example 8, (Z)-3-[1-(2-carboxy-phenylamino)-1-phenyl-methylidene]-2-indolinone]
31 | 258 to 263 °C | NC(=O)c1cccc(N/C(=C2\C(=O)Nc3ccccc32)c2ccccc2)c1 [Example 10, (Z)-3-{1-[3-(aminocarbonyl)phenylamino]-1-phenyl-methylidene}-2-indolinone]
32 | 178 to 181 °C | CCOC(=O)Cc1cccc(N/C(=C2\C(=O)Nc3ccccc32)c2ccccc2)c1 [Example 11, (Z)-3-[1-(3-ethoxycarbonylmethyl-phenylamino)-1-phenyl-methylidene]-2-indolinone]
33 | 268 to 270 °C | O=C(O)Cc1cccc(N/C(=C2\C(=O)Nc3ccccc32)c2ccccc2)c1 [Example 12, (Z)-3-[1-(3-carboxymethyl-phenylamino)-1-phenyl-methylidene]-2-indolinone]
34 | 227 to 228 °C | CCOC(=O)c1ccc(N/C(=C2\C(=O)Nc3ccccc32)c2ccccc2)cc1 [Example 13, (Z)-3-[1-(4-ethoxycarbonyl-phenylamino)-1-phenyl-methylidene]-2-indolinone]
35 | 194 to 195 °C | CCOC(=O)c1cccc(N/C(=C2\C(=O)Nc3ccccc32)c2ccccc2)c1 [Example 14, (Z)-3-[1-(3-ethoxycarbonyl-phenylamino)-1-phenyl-methylidene]-2-indolinone]
36 | 214 to 216 °C | O=C(O)Cc1ccc(N/C(=C2\C(=O)Nc3ccccc32)c2ccccc2)cc1 [Example 16, (Z)-3-[1-(4-carboxymethyl-phenylamino)-1-phenyl-methylidene]-2-indolinone]
37 | 312 to 316 °C | O=C1Nc2ccccc2/C1=C(/Nc1ccc(C(=O)O)cc1)c1ccccc1 [Example 17, (Z)-3-[1-(4-carboxy-phenylamino)-1-phenyl-methylidene]-2-indolinone]
38 | 321 to 323 °C | NC(=O)c1ccc(N/C(=C2\C(=O)Nc3ccccc32)c2ccccc2)cc1 [Example 20, (Z)-3-[1-(4-aminocarbonyl-phenylamino)-1-phenyl-methylidene]-2-indolinone]
39 | 250 to 252 °C | CNC(=O)c1cccc(N/C(=C2\C(=O)Nc3ccccc32)c2ccccc2)c1 [Example 21, (Z)-3-[1-(3-methylaminocarbonyl-phenylamino)-1-phenyl-methylidene]-2-indolinone]
40 | 261 to 263 °C | CN(C)C(=O)c1cccc(N/C(=C2\C(=O)Nc3ccccc32)c2ccccc2)c1 [Example 22, (Z)-3-[1-(3-dimethylaminocarbonyl-phenylamino)-1-phenyl-methylidene]-2-indolinone]
